In patent US9669003B2, “Use of flavone and flavanone derivatives in preparation of sedative and hypnotic drugs” (priority 2012, dated 2017):
Marks after values point to notes of the source that are not given here.

What was measured:
Assay type in all cases: in vivo
Kunming mice [1] = assay: Influence on autonomic activity of normal mice (ZIL-2 mice autonomic activity meter, counts within 10 min); settings: intragastric, x ± s; for Times of activities in 1 h after drug administration/10 min: 1 h after administration; for Times of activities in 2 h after drug administration/10 min: 2 h after administration; for Times of activities in 24 h after drug administration/10 min: 24 h after administration
Procedure, shortened: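 Activity counts during a 10-min window were taken at 1, 2 and 24 h after dosing in groups of 10 mixed-sex Kunming mice. Compounds were given in 0.5% CMC-Na at 25, 50 or 100 mg/kg. Statistics used Levene's homogeneity test, ANOVA and Dunnett's multiple comparisons.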

Kunming mice [2] = assay: Influence on hypnosis effect with pentobarbital sodium doses below the threshold (25 mg/kg i.p.); settings: pentobarbital sodium 25 mg/kg i.p. 60 min later, sleep observed in 30 min, n = 10
Procedure, shortened: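 Percentage of mice sleeping within 30 min after subthreshold pentobarbital sodium (25 mg/kg i.p.), defined by loss of righting reflex over 1 min, analysed by χ2. Compound in 0.5% CMC-Na given intragastrically at 25/50/100 mg/kg 60 min before; groups of 10 Kunming mice, both sexes.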

Kunming mice [3] = assay: Influence on hypnosis effect with pentobarbital sodium doses at the threshold (50 mg/kg i.p.); settings: pentobarbital sodium 50 mg/kg i.p. 60 min later, x ± s, n = 10
Procedure, shortened: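 Pentobarbital sodium (0.3%, 50 mg/kg i.p.) injected 60 min after a single intragastric dose (25, 50, 100 mg/kg, 0.5% CMC-Na vehicle) in Kunming mice, 10 per group, sexes balanced. Onset and length of sleep (righting reflex lost over 1 min) analysed by ANOVA; sleeping incidence by χ2 test.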

[4] = test drug 25 mg/kg intragastric single dose
[5] = test drug 50 mg/kg intragastric single dose
[6] = test drug 100 mg/kg intragastric single dose
[7] = 25 mg/kg intragastric single dose
[8] = 50 mg/kg intragastric single dose
[9] = 100 mg/kg intragastric single dose

SMILES	Times of activities in 1 h after drug administration/10 min (Kunming mice [1]; 25 mg/kg, n = 10)	Times of activities in 2 h after drug administration/10 min (Kunming mice [1]; 25 mg/kg, n = 10)	Times of activities in 24 h after drug administration/10 min (Kunming mice [1]; 25 mg/kg, n = 10)	Times of activities in 1 h after drug administration/10 min (Kunming mice [1]; 50 mg/kg, n = 10)	Times of activities in 2 h after drug administration/10 min (Kunming mice [1]; 50 mg/kg, n = 10)	Times of activities in 24 h after drug administration/10 min (Kunming mice [1]; 50 mg/kg, n = 10)	Times of activities in 1 h after drug administration/10 min (Kunming mice [1]; 100 mg/kg, n = 10)	Times of activities in 2 h after drug administration/10 min (Kunming mice [1]; 100 mg/kg, n = 10)	Number of sleeping animals (Kunming mice [2]; [4])	rate of sleeping (%) (Kunming mice [2]; [4])	Number of sleeping animals (Kunming mice [2]; [5])	rate of sleeping (%) (Kunming mice [2]; [5])	Number of sleeping animals (Kunming mice [2]; [6])	rate of sleeping (%) (Kunming mice [2]; [6])	duration of sleep (Kunming mice [3]; [7])	time to sleep (Kunming mice [3]; [7])	duration of sleep (Kunming mice [3]; [8])	time to sleep (Kunming mice [3]; [8])	duration of sleep (Kunming mice [3]; [9])	time to sleep (Kunming mice [3]; [9])	further results
C=Cc1cc(C(N)=O)cc2oc(-c3ccc(N)c(C4CCSC4)c3)cc(=O)c12 (stereo not drawn) [Example 38]	312.9 ± 40.6 /10 min	296.2 ± 34.6 /10 min	268.9 ± 82.8 /10 min	259.2 ± 54.6 /10 min	257.1 ± 57.2 /10 min	279.7 ± 76.5 /10 min	182.7 ± 41.3 /10 min	165.4 ± 56.2 /10 min	6	60** %	8	80*** %	9	90*** %	29.67 ± 21.25 min	4.92 ± 2.48 min	36.68 ± 12.30 min	4.67 ± 1.55 min	52.95 ± 20.05 min	3.98 ± 1.27 min	Times of activities in 24 h after drug administration/10 min (Kunming mice [1]; 100 mg/kg, n = 10): 324.7 ± 80.9 /10 min
CC=Cc1cc(C(=O)O)c2c(=O)cc(-c3ccc(C#N)c(C(=O)O)c3)oc2c1 [Example 40]	291.4 ± 51.5 /10 min	276.0 ± 48.7 /10 min	311.2 ± 79.9 /10 min	245.7 ± 44.5 /10 min	223.6 ± 43.8 /10 min	288.9 ± 68.9 /10 min	145.7 ± 39.8 /10 min	169.8 ± 40.5 /10 min	4	40* %	6	60** %	7	70** %	21.71 ± 26.77 min	5.32 ± 2.47 min	27.68 ± 27.86 min	5.13 ± 2.64 min	61.35 ± 45.27 min	4.92 ± 1.26 min	Times of activities in 24 h after drug administration/10 min (Kunming mice [1]; 100 mg/kg, n = 10): 301.5 ± 91.8 /10 min
COc1ccc(-c2oc3c(OC)c(OC)c(OC)c(OC)c3c(=O)c2OC)cc1OC [Example 41, 3,5,6,7,8,3′,4′-heptamethoxyl-flavone]	285.2 ± 44.1 /10 min	266.0 ± 40.6 /10 min	307.2 ± 69.7 /10 min	260.4 ± 37.9 /10 min	245.5 ± 28.1 /10 min	306.2 ± 81.3 /10 min	198.6 ± 58.8 /10 min	171.5 ± 56.7 /10 min	4	40* %	6	60** %	8	80*** %	22.16 ± 16.23 min	5.33 ± 2.25 min	28.34 ± 17.13 min	5.12 ± 2.09 min	65.44 ± 37.54 min	3.16 ± 1.23 min	Times of activities in 24 h after drug administration/10 min (Kunming mice [1]; 100 mg/kg, n = 10): 291.5 ± 70.0 /10 min
COc1ccc(C2CC(=O)c3c(O)c(OC)c(OC)c(OC)c3O2)cc1 (stereo not drawn) [Example 42, 5-hydroxyl-6,7,8,4′-tetramethoxyl-flavanone]	231.2 ± 47.3 /10 min	233.2 ± 35.1 /10 min	313.5 ± 68.2 /10 min	154.5 ± 43.2 /10 min	145.3 ± 41.3 /10 min	310.3 ± 62.5 /10 min	108.5 ± 48.5 /10 min	104.3 ± 42.5 /10 min	5	50** %	8	80*** %	9	90*** %	58.90 ± 15.38 min	4.42 ± 1.65 min	69.37 ± 20.24 min	3.30 ± 1.32 min	78.53 ± 19.87 min	2.26 ± 1.28 min	Times of activities in 24 h after drug administration/10 min (Kunming mice [1]; 100 mg/kg, n = 10): 302.6 ± 69.3 /10 min
COc1ccc(C2CC(=O)c3c(O)c(OC)c(OC)c(OC)c3O2)cc1OC (stereo not drawn) [Example 43, 5-hydroxyl-6,7,8,3′,4′-penta methoxyl-flavanone]	–	–	–	–	–	–	–	–	5	50** %	7	70** %	8	80*** %	32.33 ± 23.16 min	4.88 ± 1.91 min	59.98 ± 18.43 min	4.19 ± 1.74 min	63.07 ± 33.12 min	3.85 ± 1.76 min	Times of activities in 1 h after drug administration/10 min (Kunming mice [1]; 25 mg/kg, n = 10, 25 mg/kg): 293.7 ± 41.4 /10 min; Times of activities in 2 h after drug administration/10 min (Kunming mice [1]; 25 mg/kg, n = 10, 25 mg/kg): 306.3 ± 51.6 /10 min; Times of activities in 24 h after drug administration/10 min (Kunming mice [1]; 25 mg/kg, n = 10, 25 mg/kg): 324.7 ± 71.3 /10 min; Times of activities in 1 h after drug administration/10 min (Kunming mice [1]; 50 mg/kg, n = 10, 50 mg/kg): 254.1 ± 42.7 /10 min; Times of activities in 2 h after drug administration/10 min (Kunming mice [1]; 50 mg/kg, n = 10, 50 mg/kg): 252.6 ± 41.6 /10 min; Times of activities in 24 h after drug administration/10 min (Kunming mice [1]; 50 mg/kg, n = 10, 50 mg/kg): 313.7 ± 68.5 /10 min; Times of activities in 1 h after drug administration/10 min (Kunming mice [1]; 100 mg/kg, n = 10, 100 mg/kg): 265.4 ± 49.2 /10 min; Times of activities in 2 h after drug administration/10 min (Kunming mice [1]; 100 mg/kg, n = 10, 100 mg/kg): 258.1 ± 32.7 /10 min; Times of activities in 24 h after drug administration/10 min (Kunming mice [1]; 100 mg/kg, n = 10, 100 mg/kg): 294.1 ± 72.3 /10 min
